Data published in US9017938B2, “Use of microrna-199b-5p in medical and diagnostic field” (Advanced Accelerator Applications, priority 2009, dated 2015).

Legend:
ONS76 cells = experiment: Proliferation assay MTS, ONS76; format: cell-based; conditions: transient transfection vs mock-transfected cells
Experimental: Cell proliferation was determined using the CellTiter96 AQueous Non-Radioactive Cell Proliferation Assay Kit (Promega Madison, Wis.). The cells were seeded into 96-well plates at a density of 1×10^3 cells/well in EMEM without or with FBS. After 0, 24, 48 and 72 h, MTS ([3-(4,5-dimethylthiazol-2-yl)-5-(3-carboxymethoxyphenyl)-2-(4-sulfophenyl)-2H-tetrazolium]) and PMS (phenazine methosulfate) were added to each well and after 4 h the absorbance of each well was measured at 490 nm (OD490) using Multilabel counter Victor^3 (Perkin Elmer). Each condition was performed with five wells and each experiment was repeated twice.

Daoy cells [1] = experiment: Soft-agar colony formation assay; format: cell-based, human; conditions: stable 199bSC1 clone vs empty-vector clone
Experimental: Daoy cells and the stable 199b clone were seeded in 1 ml EMEM supplemented with 2% FBS, containing 0.3% agarose. Cultures were maintained for two weeks and refreshed with EMEM supplemented with 2% FBS twice per week. Colonies of more than 100 μm in diameter were counted under a Leica (Nussloch, Germany) DC500 compound microscope.

HES1 3′UTR = experiment: Luciferase reporter assay, HES1 3′UTR; format: cell-based, human; conditions: co-transfected miR-199b-5p expression vector
Experimental: (§1) To determine the activity of miR-199b-5p on repression of the luciferase-3′UTR fused constructs, the pREYZO-miR-199b-5p construct and the pRL-CMV-3′UTR target construct were co-transfected into HEK293 cells at a ratio of 10:1, using the Polyfect reagent (Qiagen) together with the pGL3 basic vector, in the absence and presence of 2-OM (400 nM). Luciferase activities were analysed using a Dual Luciferase Reporter Assay system (Promega, Madison, Wis.).
Pre-miR-199b was cloned in a pcDNA3 modified vector (pREYZO) (D'angelo et al., 2004) using EcoRI-XhoI restriction sites. HES1 and GSK-3˜target-binding sites (3′UTRs) were cloned in tandem in the 3′UTR of 20 the pRL-cytomegalovirus (CMV) vector (Promega, Madison, Wis.) downstream of the coding region of Renilla luciferase (RL) in the XbaI site The HES1 3′UTR (including the 199b binding site) was amplified from genomic DNA with the following primers: HES1—3′UTR as […] (SEQ ID NO: 96) and HES1—3′UTR as […] (SEQ ID NO: 97), and was cloned in the TK vector (Promega, Madison, Wis.) upstream of the firefly luciferase gene, in the XbaI sites. HES1 full-length cDNA was obtained with a standard RTPCR approach from a Daoy cDNA.
The site-directed mutagenesis of the miR-199b-5p binding site in HES1 3′UTR was generated according to the manufacturer protocol of the QuikChange site-directed mutagenesis kit (Stratagene, La Jolla, Calif.). […]

Daoy cells [2] = experiment: Expression of differentiation and proliferation markers (real-time PCR, Western blot); format: cell-based, human
Experimental: Total RNA was extracted from the cell lines using the Trizol reagent (Invitrogen). Synthesis of cDNA from total RNA (4 μg) was performed using a Super Script II First Strand Kit (Invitrogen). Real-time quantitative PCR was performed using standard protocols with an Applied Biosystems ABI PRISM 7900HT Sequence Detection system. To calculate the relative gene expression of the miR-199b-5p precursor, the relative amounts of each pre-miRNA were normalized to U6 miRNA; the other genes were normalized using the β-actin gene. Real-time PCR primers for each gene were designed using Primer Express software version 2.0 (Applied Biosystems). The primer sequences are available upon request.
(§2) Thirty μg cytosolic or nuclear lysates were loaded onto 12% polyacrilamide gels, and blotted onto polyvinylidene difluoride membranes (PVDF; BioRad, Milan, Italy). The membranes were then incubated with anti-HES1 (kind gift of Dr. Tetsuo Sudo TORAY Industries, Tebiro Kamakura, Japan), a polyclonal rabbit antibody (1:500), an anti-GSK3-β (B&D Bioscience) monoclonal antibody (1:2500), an anti-c-Myc polyclonal rabbit antibody (1:200) (Santa Cruz Biotechnology, Santa Cruz, Calif., USA), an anti-GABRA6 antibody (Santa Cruz Biotechnology, Santa Cruz, USA) (1:200), an anti-MATH3 antibody (Santa Cruz Biotechnology, Santa Cruz, USA) (1:200) and an anti-cyclin D1 (1:200) polyclonal rabbit antibody (Cell Signaling). An anti-β-actin antibody (1:1.000) (Sigma) was used as the control for equal loading of cytosolic lysates and a polyclonal anti-β-laminin antibody (1:50) (Santa Cruz Biotechnology, Santa Cruz, Calif., USA) for equal loading of nuclear lysates.

HES1 = experiment: Western blotting of HES1 protein; format: cell-based, human
Experimental: as §2

cyclin L1 3′UTR = experiment: Luciferase reporter assay, full-length 3′UTR; format: cell-based; conditions: miR-199b-5p over-expression in Daoy cells
Experimental: as §1

Daoy cells [3] = experiment: FACS cell-cycle analysis (propidium iodine); format: cell-based, human
Experimental: (§3) The flow cytometry analysis of S-phase fractions and cell-cycle kinetics were carried out using a FACSCalibur (Becton Dickinson, San Jose, Calif.) using CELL Quest version 3.3 software. The CD133 studies were carried out using the same instrument, with antibodies from Miltenyi Biotec (Auburn, Calif.), according to the manufacturer instructions. In brief, the cells were blocked in Fc receptor blocking reagent and incubated with an anti-CD133/1 (AC133)-phycoerythrin antibody (Miltenyi Biotec), for 10 min in the dark at 4° C. The cells were then washed and resuspended in PBS. Cells expressing higher levels of CD133 than the immunoglobulin G (IgG) controls were considered positive. For analyses of the side populations, cells […] were incubated with Hoechst 33342 (5 μmol/L; Sigma) for 90 min at 37° C. in EMEM containing 2% FBS. To ensure the correct identification of the side population cells, the cells were incubated as above with the addition of 50 μM verapamil (Sigma).

CD133+ Daoy cells = experiment: CD133 FACS analysis; format: cell-based, human
Experimental: as §3

[4] = Western blot, stable 199bSC1 clone
[5] = stable 199bSC1 clone vs empty vector clone

miR-199b-5p: mature microRNA CCCAGUGUUUAGACUAUCUGUUC (SEQ ID NO:11); over-expressed from pre-miR-199b construct, e.g. stable Daoy clones 199bSC1, 199bMC1 (listed as RNA, chemistry not fully specified)
proliferation (ONS76 cells): decreased proliferation | reduction in colony formation potential (Daoy cells [1]): 80% | effect on luciferase reporter with HES1 3′UTR mutated in the miR-199b binding site (HES1 3′UTR): no effect | reduction of luciferase activity from wild-type HES1 3′UTR reporter (HES1 3′UTR; HEK293 and Daoy cell lines): 50% | GABRA6 protein (Daoy cells [2]; [4]): up-regulated | MATH3 protein (Daoy cells [2]; [4]): up-regulated | c-Myc protein (Daoy cells [2]; [4]): decreased | cyclin D1 protein (Daoy cells [2]; [4]): decreased | expression of pro-neural bHLH (MASH1, MATH3, NGN2) (Daoy cells [2]; real-time PCR, both stable clones): increases in expression | MAP2 mRNA expression (Daoy cells [2]; real-time PCR, stable 199bSC1 and 199bMC1 clones): up-regulated | GFAP levels (Daoy cells [2]; real-time PCR, stable 199bSC1 clone): increased | GABRA6 mRNA expression (Daoy cells [2]; real-time PCR, stable clones): significantly over-expressed | c-Myc expression (Daoy cells [2]; real-time PCR, stable clones): decreased | cyclin D1 expression (Daoy cells [2]; real-time PCR, stable clones): decreased | endogenous HES1 protein level (HES1; D283 cells, transient transfection vs empty vector): lowered the levels of the endogenous HES1 protein | endogenous HES1 protein level (HES1; HEK293 cells, transient transfection, 48 h): lowered the levels of the endogenous HES1 protein | HES1 protein level (HES1; stable Daoy clone 199bSC1): no detectable HES1 | HES1 protein level (HES1; three stable Daoy clones over-expressing miR-199b-5p): reduced HES1 protein levels | down-regulation of reporter carrying cyclin L1 3′UTR (cyclin L1 3′UTR): did not detect any down-regulatory effects | changes in cell cycle (Daoy cells [3]; stable 199bMC1 clone): did not show significant changes | decrease in S-phase fractions (Daoy cells [3]; [5]): 31% | increase in cells in G0-G1 (Daoy cells [3]; [5]): 15% | CD133+ cells (CD133+ Daoy cells; stable 199bMC1 clone (wild-type cells 14.8%)): 6.5% | CD133+ cells (CD133+ Daoy cells; stable 199bSC1 clone (wild-type cells 14.8%)): 2.4%
